# Measured values from the supplement of paper PMC10307832.
# Columns and labels:
# Experiment in all cases: relative viability (nuclei count vs DMSO), 5 days (fraction); higher = more cells survive
# BAM7 + Crizotinib = compound: CCOC1=CC=CC=C1N=NC2=C(NN(C2=O)C3=NC(=CS3)C4=CC=CC=C4)C [BAM7] + C[C@@H](Oc1cc(-c2cnn(C3CCNCC3)c2)cnc1N)c1c(Cl)ccc(F)c1Cl [Crizotinib] (partner 1 µM)
# Outline: (§1)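 Relative viability is defined as nuclei in treated wells over nuclei in vehicle wells. Duplicate plates were run and medians reported. Lung cancer cell lines in 1536-well plates were dosed by pin tool one day after seeding, with one drug or with a fixed anchor-drug dose plus five library-drug doses (not always all listed) in √10 steps, and nuclei were counted after 5 days.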
# BAM7 + Decitabine = compound: CCOC1=CC=CC=C1N=NC2=C(NN(C2=O)C3=NC(=CS3)C4=CC=CC=C4)C [BAM7] + Nc1ncn([C@H]2C[C@H](O)[C@@H](CO)O2)c(=O)n1 [Decitabine] (partner 2 µM)
# Outline: as §1
# BAM7 + OSI-027 = compound: CCOC1=CC=CC=C1N=NC2=C(NN(C2=O)C3=NC(=CS3)C4=CC=CC=C4)C [BAM7] + COc1cccc2cc(-c3nc([C@H]4CC[C@H](C(=O)O)CC4)n4ncnc(N)c34)[nH]c12 [OSI-027] (partner 0.5 µM)
# Outline: as §1
# [1] = compound: CCn1c(-c2nonc2N)nc2c(C#CC(C)(C)O)ncc(OC[C@H]3CCCNC3)c21 + COc1cccc2cc(-c3nc([C@H]4CC[C@H](C(=O)O)CC4)n4ncnc(N)c34)[nH]c12 [OSI-027] (partner 0.5 µM)
# Outline: as §1
Cell Line,relative viability (BAM7 + Crizotinib; first compound 0.5 µM),relative viability (BAM7 + Crizotinib; first compound 5 µM),relative viability (BAM7 + Crizotinib; first compound 15.81 µM),relative viability (BAM7 + Crizotinib; first compound 50 µM),relative viability (BAM7 + Decitabine; first compound 0.5 µM),relative viability (BAM7 + Decitabine; first compound 5 µM),relative viability (BAM7 + Decitabine; first compound 15.81 µM),relative viability (BAM7 + Decitabine; first compound 50 µM),relative viability (BAM7 + OSI-027; first compound 0.5 µM),relative viability (BAM7 + OSI-027; first compound 5 µM),relative viability (BAM7 + OSI-027; first compound 15.81 µM),relative viability (BAM7 + OSI-027; first compound 50 µM),relative viability ([1]; first compound 0.01 µM),relative viability ([1]; first compound 0.03162 µM),relative viability ([1]; first compound 0.1 µM),relative viability ([1]; first compound 0.3162 µM),relative viability ([1]; first compound 1 µM)
IA-LM,0.725,1.16,0.619,0.784,–,–,–,–,–,–,–,–,–,–,–,–,–
NCI-H322M,0.859,0.798,0.811,0.641,0.761,0.722,0.742,0.692,0.576,0.617,0.57,0.65,0.479,0.496,0.45,0.42,0.483
NCI-H3122,0.282,0.378,0.33,0.312,0.506,0.514,0.447,0.444,1.03,1.11,1.01,1.28,0.875,0.913,0.791,0.317,0.4
COR-L23,0.785,0.685,0.601,0.604,0.428,0.453,0.461,0.468,0.772,0.74,0.802,0.858,0.839,0.698,0.687,0.478,0.384
NCI-H2087,0.887,0.916,0.856,0.7,0.339,0.289,0.292,0.297,0.818,0.552,0.441,0.559,0.479,0.522,0.652,0.477,0.467
LC-2-ad,0.488,0.518,0.46,0.463,0.786,0.774,0.751,0.689,0.918,0.865,0.8,0.902,0.71,0.804,0.871,0.681,0.857
NCI-H1915,0.892,0.918,0.874,0.891,0.266,0.259,0.249,0.281,0.687,0.674,0.6,0.625,0.625,0.648,0.573,0.629,0.652
NCI-H1793,–,–,–,–,0.469,0.552,0.467,0.486,0.271,0.267,0.25,0.233,0.279,0.29,0.232,0.251,0.252
NCI-H2023,0.631,0.59,0.454,0.524,0.218,0.225,0.191,0.246,0.357,0.347,0.297,0.506,0.369,0.411,0.307,0.202,0.195
COR-L 105,0.917,1.02,0.787,0.718,0.606,0.7,0.678,0.622,0.688,0.579,0.73,0.713,0.664,0.802,0.59,0.52,0.499
